From PubChem BioAssay AID1996
Values after ≈ are worked out from the molar mass of the structure shown.

settings: buffer; pH 7.4; 200.0 µM

Structure (SMILES) | solubility kinetic
COc1ccc2c(c1)Sc1ccccc1N2 | 2.7 µg/mL (≈ 11.8 µM)
COc1ccccc1C1NC(=O)CCC1[N+](=O)[O-] (stereo not given) | > 37.5 µg/mL
Cn1c(=O)c2c(nc3n2CCS3)n(C)c1=O | > 35.7 µg/mL
S=C(Nc1ccc(Cl)c(Cl)c1)N1CCCC1 | 3.3 µg/mL (≈ 12 µM)
O=C(O)Cc1sc(-c2ccccc2)nc1-c1cccs1 | > 45.2 µg/mL
O=C(NC(=S)NNC(=O)c1ccco1)c1ccccc1 | > 43.4 µg/mL
C=CCn1c(O)c(/C=N/N2CCCCC2)c(=O)[nH]c1=O | > 41.7 µg/mL
Oc1ccc2ccccc2c1CNc1ccccn1 | 9.4 µg/mL (≈ 37.6 µM)
CN(C)c1ccc(N2C(=O)CC(c3ccccc3)CC2=O)cc1 | 12.3 µg/mL (≈ 39.9 µM)
COc1ccccc1OCC#CCN1CCCC1.O=C(O)C(=O)O | > 50.3 µg/mL
O=C(O)c1ccc(/C=N/n2cc(-c3ccccc3)[nH]c2=S)cc1 | > 48.5 µg/mL
COc1cccc(OC)c1C(=O)OCC(=O)NCc1ccco1 | > 47.9 µg/mL
Oc1cncc(Cc2ccccc2)c1 | > 27.8 µg/mL
Cc1ccc(Nc2c3c(nc4ccccc24)CCC3)cc1.Cl | 33.4 µg/mL
O=C(COC(=O)c1ccccc1)NC1CCCCCC1 | 39.7 µg/mL (≈ 144 µM)
Cc1cccc(OCC(O)Cn2ccnc2C)c1 (stereo not given) | 33.2 µg/mL (≈ 135 µM)
CCOC(=O)c1ccc(NC(=S)NCc2cccnc2)cc1 | > 47.3 µg/mL
CCc1sc(C(=O)Nc2ncccc2C)cc1C | > 39.1 µg/mL
CC1CCCCC1NC(=O)CNC(=O)c1cccs1 (stereo not given) | > 42.1 µg/mL
CCOC(=O)Cc1cc(=O)[nH]c(/N=C(\N)Nc2ccc(OC)cc2)n1 | 6.2 µg/mL (≈ 18 µM)
N/C(CN1CCCCC1)=N\S(=O)(=O)c1cc(Cl)cc(Cl)c1 | 3.7 µg/mL (≈ 10.6 µM)
CCC(=O)c1ccc(OCC(=O)OCC(=O)NC2CCCCCCC2)cc1 | 48 µg/mL (≈ 128 µM)
CC(=O)n1cc(C=C2C(=O)NC(=O)NC2=O)c2ccccc21 | 27.5 µg/mL (≈ 92.5 µM)
CC(=O)N1CCN(S(=O)(=O)c2cccc(C(=O)NCc3ccc(F)cc3)c2)CC1 | > 62.9 µg/mL

Structure (SMILES) | solubility kinetic
N#Cc1cc2cc3c(cc2nc1SCC(=O)N1CCOCC1)OCO3 | 4.9 µg/mL (≈ 13.7 µM)
Cc1cccc(NC(=O)C(C)Sc2nc3nc(C)cc(C)n3n2)c1 (stereo not given) | > 51.2 µg/mL
COc1ccccc1NC(=O)NC1CCCCCCC1 | 2.7 µg/mL (≈ 9.77 µM)
CCCC(=O)OCC(=O)Nc1ccc2c(c1)OCO2 | 37.2 µg/mL (≈ 140 µM)
Cc1nc(-c2ccccc2)ccc1C(=O)O | > 32 µg/mL
CC(=O)Nc1ccc(NC(=O)c2ccc(Cl)nc2)cc1 | > 43.5 µg/mL
Cc1cc(C(=O)N2CCN(c3ccc([N+](=O)[O-])cc3)CC2)n[nH]1 | > 47.3 µg/mL
Cc1cc(C(=O)COC(=O)/C=C/c2ccco2)c(C)n1C | 12.9 µg/mL (≈ 44.9 µM)
S=C(Nc1ccccc1)Nc1ccc(Br)cc1 | 5.6 µg/mL (≈ 18.2 µM)
COc1ccccc1NC(=O)/C(C#N)=C/c1cccnc1 | 41.3 µg/mL (≈ 148 µM)
Cc1ccccc1NC(=O)C(C)SCc1ccccc1 (stereo not given) | > 42.8 µg/mL
Cc1ccc(Cl)c(NC(=O)CSc2cccc[n+]2[O-])c1Cl | > 51.5 µg/mL
CC1C(=O)N2CCCc3cc(NS(C)(=O)=O)cc1c32 (stereo not given) | 40.3 µg/mL (≈ 144 µM)
COC(=O)c1[nH]c2c(c1C(=O)OC)CCc1ccccc1-2 | 19.4 µg/mL (≈ 68 µM)
Cc1cc(C)nc(NC(=O)c2ccc(C)o2)n1 | > 34.7 µg/mL
CN(CC(=O)Nc1c(Cl)cccc1Cl)C(=O)CCC1CCCC1 | 53.4 µg/mL (≈ 149 µM)
CC1(c2ccc(Cl)cc2)NC(=O)N(CC(=O)N2CCc3ccccc32)C1=O (stereo not given) | 1.5 µg/mL (≈ 3.91 µM)
CCCc1nnc(NC(=O)C2CC(=O)N(CCc3ccc(F)cc3)C2)s1 (stereo not given) | > 56.5 µg/mL
Cc1cc(C)cc(NC(=O)c2cc(C)nc3ccccc23)c1 | < 0.3 µg/mL
Cc1ccn2c(C=O)c(-c3ccc(F)cc3)c(C=O)c2c1 | 8.5 µg/mL (≈ 30.2 µM)
Cc1ccc(S(=O)(=O)c2c[nH]c3ccc(Cl)cc3c2=O)cc1 | < 0.7 µg/mL
CC(C)n1cc(/C=C2/NC(=O)NC2=O)c2ccccc21 | 0.7 µg/mL (≈ 2.6 µM)
CN1CCN(C(=O)CNC(=O)Cc2ccc(Cl)cc2)CC1 | > 46.5 µg/mL
Cc1ccc(N2C(=O)CCC(C(=O)O)C2c2cccs2)cc1 (stereo not given) | 46.3 µg/mL (≈ 147 µM)

Structure (SMILES) | solubility kinetic
Cc1[nH]c2ccc(C(=O)N3CCN(Cc4ccccc4)CC3)cc2c1C | > 52.1 µg/mL
CCCn1c(Nc2cccc(OC)c2)nc2ccccc21 | 2.1 µg/mL (≈ 7.46 µM)
O=C(Cc1ccccc1)Oc1ccc([N+](=O)[O-])cc1 | > 38.6 µg/mL
O=C1C2CCCCN2C(=O)N1CCCCN1CCN(c2cccc(Cl)c2)CC1 (stereo not given) | 54.2 µg/mL (≈ 134 µM)
Cc1cc(NC(=O)c2ccc(-c3ccccc3F)o2)no1 | 0.6 µg/mL (≈ 2.1 µM)
COCCCNc1ncnc2c1sc1nc(-c3ccco3)c3c(c12)CC(C)(C)OC3 | 1.3 µg/mL (≈ 3.06 µM)
Cc1ccc(S(=O)(=O)NC(C)C(=O)NC2CC2)cc1 (stereo not given) | 41 µg/mL (≈ 145 µM)
COc1cccc(C(=O)Nc2ccc3[nH]c(=O)[nH]c3c2)c1OC | 27.7 µg/mL (≈ 88.4 µM)
Cc1c(C(=O)OCC(=O)NCC2CCCO2)oc2ccccc12 (stereo not given) | > 47.6 µg/mL
O=C(CN1C(=O)NC(c2ccccc2)(c2ccccc2)C1=O)NCCNCCO | > 59.5 µg/mL
O=[N+]([O-])c1ccc(N2CCN(Cc3ccc4c(c3)OCO4)CC2)nc1 | 7 µg/mL (≈ 20.4 µM)
CC1(C(=O)Nc2ccc3c(c2)OCO3)CC1(Cl)Cl (stereo not given) | > 43.2 µg/mL
CCN(CC)c1ccc(Nc2nc(-c3cccnc3)cs2)cc1 | < 0.2 µg/mL
CSCC[C@H](NC(=O)C1CCN(S(=O)(=O)c2ccc(C)cc2C)CC1)c1nc2ccccc2[nH]1 | 3.3 µg/mL (≈ 6.59 µM)
O=S(=O)(c1ccc(F)c(F)c1)N1CCC2(CC1)OCCO2 | > 47.9 µg/mL
Cc1ccc(CNS(=O)(=O)c2ccccc2[N+](=O)[O-])cc1 | 38.7 µg/mL (≈ 126 µM)
O=C(COC(=O)c1ccccc1)NC(=O)NC1CCCC1 | 23.8 µg/mL (≈ 82 µM)
Cc1cc(Br)ccc1NC(=S)NCCc1ccccc1 | 8.6 µg/mL (≈ 24.6 µM)
S=C1NCN(CCc2ccccc2)CN1Cc1ccccc1 | 0.4 µg/mL (≈ 1.28 µM)
Cc1ccsc1/C=N/NC(=O)C1CC(=O)N(c2ccc(F)cc2)C1 (stereo not given) | > 51.8 µg/mL
O=C(Nc1cccc(F)c1)C1CCCN(c2cnccn2)C1 (stereo not given) | > 45.1 µg/mL
Cc1ccccc1C(=O)NCC(=O)c1ccccc1 | > 38 µg/mL
Cc1cccc(NC(=O)CNC(=O)c2cccc(-n3cccc3)c2)c1C | 8.6 µg/mL (≈ 24.8 µM)
CN(Cc1ccccc1F)C(=O)c1ccc(Oc2ccccc2)cc1 | 4.2 µg/mL (≈ 12.5 µM)

Structure (SMILES) | solubility kinetic
Cc1cccc(C)c1NC(=O)C1CC2CCC1C2 (stereo not given) | 12.6 µg/mL (≈ 51.8 µM)
Cc1ccccc1NC(=O)CCN1CCN(C)CC1 | > 39.2 µg/mL
CCc1ccc(C(CC(=O)O)N2Cc3ccccc3C2=O)cc1 (stereo not given) | > 46.4 µg/mL
CN(Cc1ccccc1)C(=O)C1CCN(S(C)(=O)=O)CC1 | > 46.6 µg/mL
COc1ccc2oc(=O)c(C(=O)Nc3ccccc3C)cc2c1 | 2.3 µg/mL (≈ 7.44 µM)
O=C(Nc1nc2ccsc2c(=O)s1)c1ccco1 | 7.3 µg/mL (≈ 26.2 µM)
CN(C(=O)CSc1nncn1-c1ccccc1)c1ccccc1 | > 48.7 µg/mL
COC(=O)c1cc(S(=O)(=O)Nc2cccc(-c3cnco3)c2)oc1C | 50.3 µg/mL (≈ 139 µM)
O=C(NC1CCN(C(=O)Nc2cccc(F)c2)CC1)c1ccco1 | > 49.7 µg/mL
O=C(NCc1ccccc1Br)c1ccc2c(c1)OCCO2 | 11.6 µg/mL (≈ 33.3 µM)
O=C(C1CC2C=CC1C2)N1CCN(c2ccccc2)CC1 (stereo not given) | > 42.4 µg/mL
O=C(CN1C(=O)CCC1=O)NC(=O)NC1CCCC1 | > 40.1 µg/mL
Cc1cc(Cl)ccc1OCC(=O)Nc1cccnc1 | 35.3 µg/mL (≈ 128 µM)
CCOC1OC(=O)C(Cl)=C1Nc1ccc(C)cc1 (stereo not given) | > 40.2 µg/mL
Cc1c(C)c(C)c(S(=O)(=O)NCCc2ccncc2)c(C)c1C | 2 µg/mL (≈ 6.02 µM)
COc1ccc(C(=O)Nc2cccc(S(=O)(=O)NCc3ccco3)c2)cc1 | 8.7 µg/mL (≈ 22.5 µM)
CN(Cc1c(F)cccc1Cl)C(=O)CCc1c[nH]c2ccccc12 | 11.9 µg/mL (≈ 34.5 µM)
COc1ccc(NC(=O)CC(NC(C)c2ccccc2)C(=O)O)cc1 (stereo not given) | 44.2 µg/mL (≈ 129 µM)
COc1ccc(CNc2nc(NC(C)=O)nn2-c2ccccc2)cc1 | > 50.6 µg/mL
CC(Sc1nnc2ccccn12)C(=O)Nc1ccc(N2CCOCC2)cc1 (stereo not given) | > 57.5 µg/mL
CCCOc1ccc(C(=O)NCC2OCCc3ccccc32)cc1OC (stereo not given) | 4.7 µg/mL (≈ 13.2 µM)
O=C(c1cccc2ccccc12)N1CCCCC1 | 34.9 µg/mL (≈ 146 µM)
O=C(O)c1cccc(Nc2ccc([N+](=O)[O-])c3nonc23)c1 | > 45 µg/mL
CCN1CCN(CC(=O)Nc2cc(S(=O)(=O)N3CCCCC3)ccc2Cl)CC1.O=C(O)C(=O)O | > 77.9 µg/mL

Structure (SMILES) | solubility kinetic
Cc1ccc2c(c1)N(CC(=O)NCC1CCCO1)C(=O)CO2 (stereo not given) | > 45.7 µg/mL
Fc1ccc(-n2cc(-c3ccccc3)[n+]3c2SCC3)cc1.[Br-] | > 56.6 µg/mL
Cc1ccc(C)c(NC(=S)NCCc2c[nH]c3ccccc23)c1 | 17.1 µg/mL (≈ 52.9 µM)
COCCOC(=O)C1=C(C)NC(=O)NC1c1cccc2ccccc12 (stereo not given) | 48.8 µg/mL (≈ 143 µM)
COC(=O)c1ccc(N=C2SCC(=O)N2C)cc1 | > 39.6 µg/mL
CN(C(=O)CC1C(=O)NCCN1Cc1ccc(F)cc1)C1CCOCC1 (stereo not given) | > 54.5 µg/mL
CCOc1cccc2cc(C(=O)NCc3ccc(F)cc3)c(=N)oc12 | 0.7 µg/mL (≈ 2.06 µM)
O=C(O)C1CCC(CNCc2ccncc2)CC1 (stereo not given) | 36.7 µg/mL (≈ 148 µM)
O=C(Nc1ccc(Cl)c(Cl)c1)c1ccccc1NC(=O)C1CC=CCC1C(=O)O (stereo not given) | > 65 µg/mL
Cc1cc(C)c2sc(N(CCN(C)C)C(=O)c3ccc4ccccc4c3)nc2c1.Cl | 6.7 µg/mL
O=C(NC(=S)Nc1cccnc1Cl)c1ccc(F)cc1 | 6.4 µg/mL (≈ 20.7 µM)
COC(=O)c1c(NC(=O)CCCC(=O)O)sc2c1CCCCC2 | > 50.9 µg/mL
O=C1CC(=O)N(c2cccc(F)c2)C(=O)N1 | > 33.3 µg/mL
O=C(COc1ccc(-c2ccccc2)cc1)Nc1cccnc1 | 4.2 µg/mL (≈ 13.8 µM)
CNC(=O)O/N=C(\N)Cc1csc2ccc(Cl)cc12 | 44.1 µg/mL (≈ 148 µM)
Cc1ccc(CSC2=NCCN2C(=O)c2ccc([N+](=O)[O-])cc2)cc1 | 6.3 µg/mL (≈ 17.7 µM)
CC(C)(C)Nc1nc(Cl)nc(Nc2ccccc2)n1 | 2.9 µg/mL (≈ 10.4 µM)
Cc1cccc(NC(=O)CNC(=O)CSc2ncccn2)c1C | > 49.6 µg/mL
CCCCc1c(C)nc(N2CCCC2)[nH]c1=O | > 35.3 µg/mL
Fc1ccc(-n2c(=S)[nH]c3cccnc32)cc1 | > 36.8 µg/mL
CC(=O)C1=C(O)C(=O)N(c2ccc(O)cc2)C1c1ccccc1 (stereo not given) | > 46.4 µg/mL
CCOc1cc(C(=O)Nc2cccnc2)cc(OCC)c1OCC | 47.3 µg/mL (≈ 143 µM)
NC(=O)CSc1ccc(F)cc1 | > 27.8 µg/mL
O=c1[nH]cnc2c1c(-c1ccccc1)cn2-c1ccccc1 | < 0.2 µg/mL
